How the values were obtained:
[1] = system: human retinal microvascular endothelial cells (HRECs); assay: In vitro HREC tube formation assay; format: cell-based; settings: for Stimulation of HREC endothelial tube formation: factor added alone
Procedure: In vitro tube formation assays were carried out as previously described. Briefly, near confluent microvascular endothelial cells were pretreated with VEGF (100 ng/ml) for 2 h and then treated for 24 h with test compounds at serial concentrations, as indicated. Cells without VEGF treatment or with VEGF only were used as control. The cells were then detached and plated sparsely (2.5 ×10^4/well) on 24-well plates coated with 12.5% (v/v) Matrigel (BD, Franklin Lakes, NJ) and left overnight. The medium was then aspirated and 250 μl/well of 12.5% Matrigel was overlaid on the cells for 2 h to allow the polymerization of Matrigel, followed by addition of 500 μl/well of basal medium MCD131 with 10% fetal calf serum (FCS) for 24 h. The following day, the culture plates were observed under a phase contrast microscope and photographed at random in five fields (×10). The tubule length (mm/mm^2) per microscope field was quantified.

[2] = Cytotoxicity, ATP-Lite, Fa2N-4 immortalized human hepatocytes; format: cell-based; settings: ATP-lite assay, Fa2-N4 cells
Procedure: (§1) Fa2N-4 immortalized human hepatocytes (Xenotech) or HREC cells were grown to subconfluency in wells of a 96-well plate and exposed to different concentrations of compounds for 24 h after which the cells were washed and the media and compounds replaced. The cells were returned to the incubator for another 24 h. The extent of cell death (cell lysis) was determined by ATP-Lite reagent (Perkin-Elmer).

APJ [3] = molecular target: T1, APJ (Homo sapiens, UniProt P35414); assay: APJ β-arrestin recruitment assay (PathHunter, CHO-K1-APJ); format: cell-based; design: β-galactosidase enzyme fragment (enzyme fragment complementation construct); host or cells: CHO-K1 (CHO-K1-APJ, PathHunter); settings: for IC50: secondary assay, Ap13-mediated β-arrestin recruitment
T1 sequence (P35414 1-380): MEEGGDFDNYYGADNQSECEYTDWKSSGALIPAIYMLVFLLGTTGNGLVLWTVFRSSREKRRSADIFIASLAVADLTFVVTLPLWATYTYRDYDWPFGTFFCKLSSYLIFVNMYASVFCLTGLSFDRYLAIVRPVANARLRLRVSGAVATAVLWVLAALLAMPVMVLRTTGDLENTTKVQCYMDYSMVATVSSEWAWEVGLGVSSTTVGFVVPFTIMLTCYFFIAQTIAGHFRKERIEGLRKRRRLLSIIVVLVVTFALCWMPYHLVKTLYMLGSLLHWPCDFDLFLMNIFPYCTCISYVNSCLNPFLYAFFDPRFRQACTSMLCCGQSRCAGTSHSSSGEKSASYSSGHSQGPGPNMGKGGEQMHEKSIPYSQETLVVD
Procedure: (§2) PathHunter™ GPCR Arrestin and cAMP Hunter™ cell lines (DiscoveRx Corp., Fremont, CA) were used to assay G-protein-dependent signaling and β-arrestin recruitment to APJ. CHO-K1 cells stably expressing APJ (CHO-K1-APJ) or AT1 (CHO-K1-AT1) with β-arrestin/β-galactosidase enzyme fragment complementation constructs were maintained in HAM's F-12 medium (Hyclone, Logan, UT) supplemented with 10% FBS, 1X Penicillin-Streptomycin-Glutamine (Invitrogen; Carlsbad, CA), 300 μg/ml hygromycin (EMD Biosciences, San Diego, CA), and 800 μg/ml Geneticin (Cellgro, Manassas, VA). Primary Human Retinal Microvascular Endothelial Cells (HRECs) were purchased from Cell Systems (Kirkland, WA) and maintained in Complete Classic Medium with CultureBoost-R™ (Cell Systems). Parent CHO-K1 cells were obtained from ATCC and maintained in HAM’s F-12 medium supplemented with 10% FBS, and1X Penicillin-Streptomycin-Glutamine (Invitrogen; Carlsbad, CA). All cells were incubated at 37°C (5% CO2, 95% relative humidity) and maintained at less than 70% to 80% confluence (approximately 75,000 cells/cm^2). Cell heterologously expressing APJ or AT1 were not used after 10 passages. HRECs were not used in any experiments after five passages.
(§3) CHO-K1 cells engineered to over-express APJ or AT1, and β-arrestin were removed from flasks using TrypLE Select (1X), no phenol red (Life Technologies, Grand Island, NY), centrifuged, and resuspended in CP2 Reagent (DiscoveRx, Fremont, CA). Cells were counted using a Countess Automated Cell Counter (Invitrogen, Carlsbad, CA) and 5,000 cells/well were plated in a 384-well tissue culture treated microplate (Corning, Corning, NY). All plates were incubated overnight at 37°C, 5% CO2 in a final volume of 25 μl/well. Following incubation, 5 μl of peptides (10-point concentrations) and controls prepared in ligand buffer (1X HBSS, 10 mM HEPES, 0.1% BSA) were added to cells and incubated at 37°C for 1.5 h. Using a Multidrop Combi Reagent Dispenser (Thermo Scientific), 12 μl of Detection Reagent (DiscoveRx) comprised of substrate and co-factors was added to all wells and incubated at room temperature in the dark for 1 h. Chemiluminescent signal was detected on an EnVision Multi-label plate reader (Perkin Elmer) using a counting time of 1 s/well. The robustness of data from each screening plate and run was monitored by Z’ and Signal Window calculation.

[4] = molecular target: T2, angiotensin II type 1 (AT1) (Homo sapiens, UniProt P30556); assay: AT1 β-arrestin recruitment counter assay (CHO-K1-AT1); format: cell-based
T2 construct: β-galactosidase enzyme fragment (enzyme fragment complementation construct); host or cells: CHO-K1 (CHO-K1-AT1, PathHunter)
T2 sequence (P30556 1-359): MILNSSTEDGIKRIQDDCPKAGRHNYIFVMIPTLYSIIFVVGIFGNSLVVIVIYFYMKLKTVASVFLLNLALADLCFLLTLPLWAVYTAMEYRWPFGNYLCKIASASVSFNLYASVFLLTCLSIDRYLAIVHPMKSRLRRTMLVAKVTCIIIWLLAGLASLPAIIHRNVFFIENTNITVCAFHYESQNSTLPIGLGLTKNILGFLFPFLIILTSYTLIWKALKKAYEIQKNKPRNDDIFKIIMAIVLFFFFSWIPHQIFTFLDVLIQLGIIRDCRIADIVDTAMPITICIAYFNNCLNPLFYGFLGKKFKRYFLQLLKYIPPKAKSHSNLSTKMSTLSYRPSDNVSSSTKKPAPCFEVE
Procedure: as §2, §3

APJ [5] = molecular target: T1, APJ; assay: APJ cAMP assay (primary, cAMP HitHunter, CHO-K1-APJ cells); format: cell-based; design: host or cells: CHO-K1 (CHO-K1-APJ / CHO-k1-AGTRL1)
Procedure: (§4) To identify small-molecule antagonists of the apelin receptor (APJ) we interrogated the SBP compound file of ~425,000 compounds using CHO-k1-AGTRL1 cells overexpressing human APJ and a competitive immunoassay of intracellular cAMP [59]. The compound file was screened at a concentration of 10 μM. For all 333 plates assayed, the average Z-factor = 0.68 and the average S/B = 8.2, indicating a robust assay performance. […] There were 2550 compounds that met this criterion, representing a hit rate of ~0.6%. […] Included in this hit set was a series of aminoquinolines, exemplified by compound 1 (Fig 1B). […] As part of an initial hit-validation strategy, these compounds and three other commercially available analogs were purchased for further testing. The purity and identify of all compounds were confirmed by NMR and LC-MS, and they were subsequently retested in a battery of cell-based assays of APJ function and counter screens. […] (Fig 1D).
as §2
(§5) All reagents unless otherwise specified are components of the cAMP HitHunter (DiscoveRx) kit. Ligand Buffer + 60 μM Forskolin (Cayman Chemical, Ann Arbor, MI) was made fresh on the day of the experiment and used for the dilution of positive and negative controls as well as all peptides. CHO-K1-APJ cells were dispensed into a 1536-well tissue culture microplate (Corning, Corning, NY) using a Multidrop at a seeding density of 1,000 cells/well and returned to the incubator. The next day, the cell culture media was removed and replaced with 15 μl/well of assay buffer (1X HBSS, 10 mM HEPES) containing anti-cAMP antibody (DiscoveRx). […] Plates were incubated at room temperature in the dark for 3 hours prior to chemiluminescence detection on an EnVision (Perkin Elmer) using a counting time of 1 s/well.

parental CHO-K1 cells = assay: Parental cAMP counter assay (cells lacking APJ); format: cell-based; settings: Cricetulus griseus
Procedure: as §4, §2, §5

HRECs [6] = assay: Cytotoxicity, ATP-Lite, HRECs; format: cell-based; settings: tested up to 100 μM
Procedure: as §1

HRECs [7] = settings: VEGF 100 ng/mL, Ap13 10 nM
Procedure: Migration was determined by the QCM™ chemotaxis 5 μm 96-well cell migration assay (Chemicon International, Inc.) as per the manufacture’s protocol. […] After 16 h, cells that migrated to the basal side of the chamber insert membrane were detached, lysed and detected using CyQuant GR™ dye. Migration is expressed as percent increase in migrated cells compared to untreated cells.

HRECs [8] = settings: VEGF 100 ng/mL, Ap13 10 nM; remark: listed apart in the source
Procedure: The proliferation of HRECs was monitored by the crystal violet assay as described in our previous publication. […] After washing three times with PBS, the plates were air-dried and the remaining stain was dissolved in, 10% acetic acid and absorbance measured with a microplate reader at 540 nm.

[9] = Fa2N-4 immortalized human hepatocytes

Molecule | IC50 (APJ [3]) | IC50 [4] | IC50 (APJ [5]) | Antagonism of Ap13-mediated recruitment of β-arrestin (APJ [3]) | IC50 (parental CHO-K1 cells) | other results
CSCC[C@H](NC(=O)[C@@H]1CCCN1C(=O)CNC(=O)[C@H](CCCCN)NC(=O)[C@H](Cc1c[nH]cn1)NC(=O)[C@H](CO)NC(=O)[C@H](CC(C)C)NC(=O)[C@H](CCCNC(=N)N)NC(=O)[C@@H]1CCCN1C(=O)[C@H](CCCNC(=N)N)NC(=O)[C@@H](N)CCC(N)=O)C(=O)N1CCC[C@H]1C(=O)N[C@@H](Cc1ccccc1)C(=O)O [Ap13, apelin-13] |  |  |  |  |  | Stimulation of HREC endothelial tube formation [1]: stimulated the formation of endothelial tubes
CCNCc1cc(Nc2ccnc3cc(Cl)ccc23)ccc1O [DEAQ, desethylamodiaquine] |  |  |  |  |  | APJ antagonism in the APJ cAMP assay (APJ [5]): effective APJ antagonist equipotent to the parent AQ
O=C(Oc1coc(CSc2ncccn2)cc1=O)c1ccc([N+](=O)[O-])cc1 [ML221, 4-oxo-6-((pyrimidin-2-ylthio)methyl)-4H-pyran-3-yl 4-nitrobenzoate] |  |  |  |  |  | Cytotoxicity to HRECs (HRECs [6]): Neither ML221 nor AQ were significantly toxic; Effect on Ap13-dependent increase in HREC tube formation ([1]; Ap13-induced, concentration-dependent): blocked Ap13-dependent increases in tube formation; Effect on VEGF-induced HREC tube formation ([1]; VEGF 100 ng/mL, absence of exogenous Ap13): A similar effect was observed
VEGF |  |  |  |  |  | Stimulation of HREC endothelial tube formation [1]: stimulated the formation of endothelial tubes; Effect on HREC migration (HRECs [7]): stimulated HREC proliferation and migration; Effect on HREC proliferation (HRECs [8]): stimulated HREC proliferation and migration

Continued, in another order:

IC50 (APJ [3]) | IC50 [4] | IC50 (APJ [5]) | Molecule | Antagonism of Ap13-mediated recruitment of β-arrestin (APJ [3]) | IC50 (parental CHO-K1 cells) | other results
> 99 µM | > 40 µM | 0.556 ± 0.105 µM | NC(=O)c1ccc(Nc2ccnc3cc(Cl)ccc23)cc1 [Compound 1, 4-((7-chloroquinolin-4-yl)amino)benzamide] | neither AQ nor 1, 3, 4, 5, or 6 antagonized | > 99 µM | IC50 at 48 h [2, 9]: > 50 µM
> 99 µM | > 99 µM | 1.15 ± 0.025 µM | O=C(OCC(O)CO)c1ccccc1Nc1ccnc2cc(Cl)ccc12 (stereo not drawn) [Compound 3, glafenine] | neither AQ nor 1, 3, 4, 5, or 6 antagonized | > 99 µM | IC50 at 48 h [2, 9]: > 50 µM
> 40 µM | > 40 µM | 1.42 ± 0.038 µM | COc1ccc(Nc2ccnc3cc(Cl)ccc23)cc1 [Compound 4, 7-chloro-N-(4-methoxyphenyl)quinolin-4-amine] | neither AQ nor 1, 3, 4, 5, or 6 antagonized | > 99 µM | IC50 at 48 h [2]: > 50 µM
> 40 µM | > 40 µM | 0.937 ± 0.084 µM | O=C(O)c1ccccc1Nc1ccnc2cc(Cl)ccc12 [Compound 5, 2-((7-chloroquinolin-4-yl)amino)benzoic acid] | neither AQ nor 1, 3, 4, 5, or 6 antagonized | > 99 µM | 
> 99 µM | > 40 µM | 23.5 ± 0.161 µM | O=C(c1ccccc1Nc1ccnc2cc(Cl)ccc12)N1CCOCC1 [Compound 6, (2-((7-chloroquinolin-4-yl)amino)phenyl)(morpholino) methanone] | neither AQ nor 1, 3, 4, 5, or 6 antagonized | > 99 µM | 
